Measured values published in patent publication US20240041042A1, “1-(PYRIDYL)-5-AZINYLPYRAZOLE DERIVATIVES, AND THEIR USE FOR CONTROL OF UNDESIRED PLANT GROWTH” (Bayer Aktiengesellschaft, priority 2020, published 2024).

Columns and labels:
Assay type in all cases: in vivo
[1] = test system: Amaranthus retroflexus (AMARE); test: Pre-emergence herbicidal action against AMARE; conditions: visual scoring after about 3 weeks vs untreated controls
Summary of the method: (§1)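 Pre-emergence soil-surface spray, WP/EC formulation, 0.5% additive, 600 l/ha water, rates of 320 g/ha or lower. Greenhouse, ~3 wk. Visual score, % of untreated control (100% = plants dead, 0% = like control).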

Lolium rigidum (LOLRI) = test: Post-emergence herbicidal action against LOLRI
Summary of the method: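 Greenhouse plants sprayed at the one-leaf stage, 2–3 weeks after sowing, with WP or EC formulations plus 0.5% additive at 600 l/ha water. Activity rated visually after about 3 weeks versus untreated controls (100% = dead, 0% = like control), at 320 g/ha or lower.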

[2] = test system: Alopecurus myosuroides (ALOMY); test: Pre-emergence herbicidal action against ALOMY; conditions: scored visually after about 3 weeks, 100% = plants have died
Summary of the method: as §1

Setaria viridis (SETVI) = test: Pre-emergence herbicidal action against SETVI
Summary of the method: as §1

Oryza sativa (ORYSA) = conditions: crop plant compatibility, 80 g/ha, effect in comparison to untreated controls
Summary of the method: (§2)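 Test crops were treated 2 to 3 weeks after sowing, once they reached one leaf, by spraying compound in water with 0.5% additive at 600 l/ha. Visual scoring compared them with untreated controls roughly 3 weeks on, and appendices a, b and c denote different doses.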

Zea mays (ZEAMX) = conditions: crop plant compatibility, 80 g/ha, effect vs untreated controls
Summary of the method: as §2

Structure (SMILES) | Pre-emergence action against AMARE in % ([1]; 80 g/ha) [%] | Pre-emergence action against AMARE in % ([1]; 320 g/ha) [%] | Post-emergence action against LOLRI in % (Lolium rigidum (LOLRI); dosage 80 g/ha) [%] | Post-emergence action against LOLRI in % (Lolium rigidum (LOLRI); dosage 320 g/ha) [%] | Pre-emergence action against ALOMY ([2]; 80 g/ha) [%] | Pre-emergence action against ALOMY ([2]; 320 g/ha) [%] | Pre-emergence action against SETVI in % (Setaria viridis (SETVI); dosage 80 g/ha) [%] | Pre-emergence action against SETVI in % (Setaria viridis (SETVI); dosage 320 g/ha) [%] | Post-emergence action against ORYSA in % (Oryza sativa (ORYSA)) [%] | Post-emergence action against ZEAMX in % (Zea mays (ZEAMX)) [%]
COC(=O)C(C)NC(=O)[C@@H](C)Oc1nn(-c2ccccn2)c(-c2cncc(F)c2)c1Cl (some centres unmarked) [Example I-199] | 100 | 100 | 90 | 90 | 90 | 90 | 90 | 100 |  | 
CCOC(=O)COc1nn(-c2ccccn2)c(-c2ccc(F)nc2)c1Br [Example I-02] | 100 | 100 | 80 | 80 | 100 | 90 | 100 | 100 |  | 
COC(=O)[C@@H](C)Oc1nn(-c2nc(F)ccc2F)c(-c2cncc(F)c2)c1Br [Example I-191] | 90 | 100 | 90 | 90 | 80 | 90 | 80 | 100 |  | 
CCOC(=O)[C@@H](C)Oc1nn(-c2ncccc2F)c(-c2ccc(F)nc2)c1C1CC1 [Example I-375] | 100 | 100 | 90 | 90 | 80 | 90 | 90 | 100 |  | 
COC(=O)CCOC(=O)[C@@H](C)Oc1nn(-c2ccccn2)c(-c2cncc(F)c2)c1Cl [Example I-196] | 100 | 100 | 90 | 90 |  | 90 | 90 | 100 |  | 
COC(=O)C(C)COC(=O)[C@@H](C)Oc1nn(-c2ccccn2)c(-c2cncc(F)c2)c1Br (some centres unmarked) [Example I-188] | 100 | 100 | 90 | 90 | 90 | 100 | 100 | 100 | 20 | 
CCOC(=O)COc1nn(-c2ccccn2)c(-c2ccc(F)nc2)c1Cl [Example I-85] | 90 | 100 | 100 | 100 | 80 | 90 | 100 | 100 |  | 
COC(=O)[C@@H](C)Oc1nn(-c2ncccc2F)c(-c2ccc(F)nc2)c1C1CC1 [Example I-307] | 100 | 100 | 100 | 100 | 80 | 90 | 100 | 100 |  | 
COC(=O)C(C)COC(=O)[C@@H](C)Oc1nn(-c2ccccn2)c(-c2cncc(F)c2)c1Cl (some centres unmarked) [Example I-198] | 100 | 100 | 80 | 80 | 80 | 90 | 100 | 100 |  | 
CCOC(=O)[C@@H](C)Oc1nn(-c2ccccn2)c(-c2cncc(F)c2)c1Cl [Example I-184] | 100 | 100 | 90 | 90 | 90 | 100 | 100 | 100 |  | 
CCOC(=O)COc1nn(-c2nc(F)ccc2F)c(-c2cncc(F)c2)c1Br [Example I-193] | 80 | 100 |  | 90 |  | 90 | 100 | 100 | 10 | 
COCCOC(=O)COc1nn(-c2ccccn2)c(-c2ccc(F)nc2)c1Br [Example I-96] | 90 | 100 | 90 | 90 | 80 | 100 | 100 | 100 |  | 
COC(=O)[C@@H](C)Oc1nn(-c2ncccc2F)c(-c2ccc(F)nc2)c1I [Example I-341] | 100 | 100 | 90 | 90 |  | 100 | 80 | 100 | 0 | 0
COC(=O)C(C)NC(=O)[C@@H](C)Oc1nn(-c2ccccn2)c(-c2cncc(F)c2)c1Br (some centres unmarked) [Example I-190] | 90 | 100 | 90 | 90 | 80 | 90 | 90 | 100 | 20 | 
